# Test results: the NIST ThermoML archive (doi:10.1016/j.jct.2011.04.018)
# ± gives the expanded uncertainty stated by the source.
# Test: activity coefficient (dimensionless); of the first substance listed, at infinite dilution; xn = mol fraction of the nth substance listed
# Conditions: 101 kPa, Liquid, Chromatography, x1 = 0
SMILES,activity coefficient (318.15 K),activity coefficient (328.15 K),activity coefficient (338.15 K),activity coefficient (348.15 K),activity coefficient (358.15 K),activity coefficient (368.15 K),activity coefficient (378.15 K),activity coefficient (308.15 K)
CO [methanol] + O=S(=O)([N-]S(=O)(=O)C(F)(F)F)C(F)(F)F.OCCC[n+]1ccccc1,0.87 ± 0.056,0.836 ± 0.054,0.804 ± 0.052,0.776 ± 0.051,0.749 ± 0.049,0.725 ± 0.048,0.703 ± 0.047,
C=CCCCCCC [oct-1-ene] + O=S(=O)([N-]S(=O)(=O)C(F)(F)F)C(F)(F)F.OCCC[n+]1ccccc1,53 ± 3.6,48.5 ± 3.3,44.4 ± 3,41.1 ± 2.8,38.1 ± 2.6,35.6 ± 2.4,,58 ± 4
CCCOCCC [dipropyl ether] + O=S(=O)([N-]S(=O)(=O)C(F)(F)F)C(F)(F)F.OCCC[n+]1ccccc1,9.45 ± 0.64,9.28 ± 0.63,9.12 ± 0.62,8.99 ± 0.61,8.87 ± 0.61,8.75 ± 0.6,,9.62 ± 0.66
c1ccccc1 [benzene] + O=S(=O)([N-]S(=O)(=O)C(F)(F)F)C(F)(F)F.OCCC[n+]1ccccc1,1.58 ± 0.1,1.58 ± 0.1,1.59 ± 0.11,1.6 ± 0.11,1.61 ± 0.11,1.62 ± 0.11,1.62 ± 0.11,
CCCCCCCCC [nonane] + O=S(=O)([N-]S(=O)(=O)C(F)(F)F)C(F)(F)F.OCCC[n+]1ccccc1,181 ± 12,157 ± 11,139 ± 10,125 ± 9,111 ± 8,99.7 ± 6.8,,206 ± 14
CCCCC [pentane] + O=S(=O)([N-]S(=O)(=O)C(F)(F)F)C(F)(F)F.OCCC[n+]1ccccc1,30.2 ± 2.1,27.9 ± 1.9,25.8 ± 1.8,24.3 ± 1.7,,,,32.9 ± 2.3
CCc1ccccc1 [ethylbenzene] + O=S(=O)([N-]S(=O)(=O)C(F)(F)F)C(F)(F)F.OCCC[n+]1ccccc1,3.96 ± 0.27,3.93 ± 0.27,3.9 ± 0.27,3.87 ± 0.26,3.84 ± 0.26,3.82 ± 0.26,3.79 ± 0.26,
C1CCOC1 [tetrahydrofuran] + O=S(=O)([N-]S(=O)(=O)C(F)(F)F)C(F)(F)F.OCCC[n+]1ccccc1,0.695 ± 0.047,0.727 ± 0.048,0.757 ± 0.05,0.784 ± 0.051,0.812 ± 0.053,0.839 ± 0.054,0.866 ± 0.055,
CC(=O)O [acetic acid] + O=S(=O)([N-]S(=O)(=O)C(F)(F)F)C(F)(F)F.OCCC[n+]1ccccc1,0.255 ± 0.03,0.277 ± 0.03,0.298 ± 0.031,0.32 ± 0.031,0.343 ± 0.032,0.367 ± 0.033,0.388 ± 0.034,
C#CCCCCCC [1-octyne] + O=S(=O)([N-]S(=O)(=O)C(F)(F)F)C(F)(F)F.OCCC[n+]1ccccc1,15.5 ± 1.1,14.9 ± 1,14.2 ± 1,13.7 ± 0.9,13.2 ± 0.9,12.7 ± 0.9,,16.2 ± 1.1
CCC(C)(C)OC [2-methoxy-2-methylbutane] + O=S(=O)([N-]S(=O)(=O)C(F)(F)F)C(F)(F)F.OCCC[n+]1ccccc1,4.45 ± 0.3,4.54 ± 0.31,4.61 ± 0.31,4.7 ± 0.32,4.77 ± 0.33,4.84 ± 0.33,,4.37 ± 0.3
C=CCCCCCCCC [1-decene] + O=S(=O)([N-]S(=O)(=O)C(F)(F)F)C(F)(F)F.OCCC[n+]1ccccc1,128 ± 9,115 ± 8,104 ± 7,95.2 ± 6.5,86.6 ± 5.9,79.7 ± 5.5,,142 ± 10
CCCC(C)=O [pentan-2-one] + O=S(=O)([N-]S(=O)(=O)C(F)(F)F)C(F)(F)F.OCCC[n+]1ccccc1,0.885 ± 0.056,0.91 ± 0.058,0.937 ± 0.059,0.96 ± 0.06,0.984 ± 0.062,1.01 ± 0.06,1.03 ± 0.06,
C1CCCCCC1 [cycloheptane] + O=S(=O)([N-]S(=O)(=O)C(F)(F)F)C(F)(F)F.OCCC[n+]1ccccc1,32.8 ± 2.2,29.7 ± 2,26.9 ± 1.8,24.7 ± 1.7,22.9 ± 1.6,21.2 ± 1.4,,36.3 ± 2.5
C1CCCCCCC1 [cyclooctane] + O=S(=O)([N-]S(=O)(=O)C(F)(F)F)C(F)(F)F.OCCC[n+]1ccccc1,46.4 ± 3.2,41.6 ± 2.8,37.3 ± 2.6,34 ± 2.3,31.3 ± 2.1,28.6 ± 2,,51.9 ± 3.6
"C1COCCO1 [1,4-dioxane] + O=S(=O)([N-]S(=O)(=O)C(F)(F)F)C(F)(F)F.OCCC[n+]1ccccc1",0.514 ± 0.038,0.541 ± 0.04,0.568 ± 0.041,0.595 ± 0.042,0.621 ± 0.043,0.647 ± 0.044,0.672 ± 0.046,
CCCCCCC [heptane] + O=S(=O)([N-]S(=O)(=O)C(F)(F)F)C(F)(F)F.OCCC[n+]1ccccc1,73.8 ± 5.1,66.2 ± 4.5,59.3 ± 4.1,54.3 ± 3.7,49.4 ± 3.4,45.8 ± 3.1,,82 ± 5.6
"CC(C)CC(C)(C)C [2,2,4-trimethylpentane] + O=S(=O)([N-]S(=O)(=O)C(F)(F)F)C(F)(F)F.OCCC[n+]1ccccc1",73.9 ± 5.1,67 ± 4.6,60.7 ± 4.2,55.7 ± 3.8,51.4 ± 3.5,47.3 ± 3.2,,81.7 ± 5.6
C=CCCCCC [1-heptene] + O=S(=O)([N-]S(=O)(=O)C(F)(F)F)C(F)(F)F.OCCC[n+]1ccccc1,33.1 ± 2.3,30.7 ± 2.1,28.5 ± 1.9,26.7 ± 1.8,25.2 ± 1.7,23.7 ± 1.6,,35.7 ± 2.4
"Cc1ccc(C)cc1 [1,4-dimethylbenzene] + O=S(=O)([N-]S(=O)(=O)C(F)(F)F)C(F)(F)F.OCCC[n+]1ccccc1",3.58 ± 0.24,3.6 ± 0.25,3.61 ± 0.25,3.62 ± 0.25,3.63 ± 0.25,3.64 ± 0.25,3.65 ± 0.25,
CC1CCCCC1 [methylcyclohexane] + O=S(=O)([N-]S(=O)(=O)C(F)(F)F)C(F)(F)F.OCCC[n+]1ccccc1,35.2 ± 2.4,31.9 ± 2.2,29 ± 2,26.8 ± 1.8,24.7 ± 1.7,22.9 ± 1.6,,38.7 ± 2.6
CCCCCC [hexane] + O=S(=O)([N-]S(=O)(=O)C(F)(F)F)C(F)(F)F.OCCC[n+]1ccccc1,46.7 ± 3.2,42.3 ± 2.9,38.5 ± 2.6,35.6 ± 2.4,32.8 ± 2.2,,,51.3 ± 3.5
CC(C)=O [acetone] + O=S(=O)([N-]S(=O)(=O)C(F)(F)F)C(F)(F)F.OCCC[n+]1ccccc1,0.403 ± 0.034,0.421 ± 0.035,0.437 ± 0.035,0.453 ± 0.036,0.469 ± 0.037,0.484 ± 0.037,0.5 ± 0.038,
